Publication PMC6154605, “Multi-Anti-Parasitic Activity of Arylidene Ketones and Thiazolidene Hydrazines against Trypanosoma cruzi and Leishmania spp” (Molecules : A Journal of Synthetic Chemistry and Natural …, 2017)
Where two headings read alike, the source gives them in different places. Marks after values point to notes of the source that are not given here.

Columns and labels:
[1] = system: L. braziliensis promastigotes; test: Leishmanicidal activity on promastigotes, resazurin; type: cell-based, Leishmania braziliensis; settings: for IC50: Leishmania braziliensis, 48 h, read-out: IC50 ± SD Promastigotes L. braziliensis; for SI NCTC/ L. braziliensis: ratio IC50 mammalian cell / IC50 parasite (promastigotes)
Source text: (§1) We initially selected compounds previously reported to have anti-T. cruzi activity from our chemical library to evaluate their leishmanicidal activity. […]. To evaluate their activity in Leishmania spp., we performed a phenotypic screening using the promastigote form of L. infantum (MHOM/FR/91/LEM-2259) and L. braziliensis ([…]) (Table 1A for the thiazolidenehydrazine derivate and Table 1B for the arylideneketones family).
(§2) A culture of L. braziliensis (MHOM/BR/75/M2904) and L. infantum (MHOM/FR/91/LEM2259V) was obtained from the Facultad de Farmacia (Universidad Complutense, Madrid, Spain). The maintenance of the strains, the form of cultivation and the isolation of the shape of the promastigote were performed following the procedures described by Roldos et al.. The promastigotes were grown at 22 °C in Schneider’s Drosophila medium supplemented with 20% FBS. The assay was performed using a modification of a previous method. Promastigotes (2 × 10^6 parasites/well) were cultivated in 96-well plastic plates. Compounds were dissolved in dimethylsulfoxide (DMSO). Different dilutions of the compounds with a final volume up to 200 µL were added. After 48 h at 26 °C, 20 µL of a 2 mM resazurin solution were added, and the oxidation-reduction was quantified at 570 and 600 nm. The solution of resazurin was prepared at 2.5 mM in phosphate buffered solution (PBS), pH 7.4, and filtered through 0.22-µm membranes prior to use. All tests were carried out in triplicate. Resazurin sodium salt was obtained from Sigma-Aldrich (St. Louis, MO, USA) and stored at 4 °C protected from light. The efficacy of each compound was estimated by calculating the IC50 values. Each antiproliferative experiment was done in duplicate, and each concentration was tested in triplicate.

[2] = system: L. infantum promastigotes; test: as above; type: cell-based, Leishmania infantum; settings: for IC50: Leishmania infantum, 48 h, read-out: IC50 ± SD Promastigotes L. infantum; for SI NCTC/ L. infantum: ratio IC50 mammalian cell / IC50 parasite (promastigotes)
Source text: as §1, §2

[3] = system: NCTC929 fibroblasts; test: Nonspecific cytotoxicity on fibroblasts, resazurin; type: cell-based; settings: NCTC-929, 24 h; read-out: IC50 ± SD Fibroblast NCTC929
Experimental: To establish the selectivity of the compounds against the parasites, nonspecific cytotoxicity against mammalian cells, using J774.1 murine macrophages and fibroblast NCTC929, was studied for the most relevant derivatives. The selectivity indexes were calculated as the ratio between cytotoxicity for mammalian cells and the anti-parasitic activity (Table 2).
NCTC-Clone 929 were grown in minimal essential medium (Sigma) supplemented with 10% heat-inactivated FBS, penicillin G (100 U/mL) and streptomycin (100 µg/mL). Cell cultures were maintained at 37 °C in a humidified 5% CO2 atmosphere. The procedure for cell viability measurement was evaluated with resazurin by a colorimetric method. The cells were plated in 96 microtiter plates at 3.00 × 10^4 cells/well in 100 µL growth medium. The cells were grown overnight at 37 °C, 5% CO2. Thereafter, the medium was removed, and the compounds were added to 200 µL of medium for 24 h. After incubation, 20 µL of a 2 mM resazurin solution were added to each well. The plates were incubated for 3 h to allow optimal oxidation-reduction. The reduction of resazurin was determined by dual wavelength absorbance measurement at 490 and 595 nm. The background was subtracted. Each concentration was assayed three times. Medium and drug controls were used in each test as blanks.

[4] = biological target: T1, LmTIM (triosephosphate isomerase from Leishmania mexicana) (Leishmania mexicana, UniProt P48499); test: Inhibition of triosephosphate isomerase; type: biochemical; settings: for IC50: read-out: IC50 ± SD LmTIM; for inhibition at 100 µM: read-out: Percentage of Inhibition LmTIM
T1 construct: made in house; host or cells: Escherichia coli
Experimental: Compounds were dissolved in DMSO. […] The experiments were performed in triplicate.

[5] = system: T. cruzi epimastigotes, Tulahuen 2 strain (genotype TcVI); settings: cited from earlier work; for SI J774.1/ T. cruzi: ratio IC50 mammalian cell / IC50 parasite (epimastigotes); for IC50: read-out: IC50 ± SD Epimastigotes T. cruzi
[6] = system: J774.1 murine macrophages; settings: read-out: IC50 ± SD Murine Macrophages, cited from earlier work
[7] = biological target: T2, cruzipain (Trypanosoma cruzi, UniProt P25779); settings: at 100 µM; cited from earlier work
[8] = biological target: T3, triosephosphate isomerase from T. cruzi (TcTIM) (Trypanosoma cruzi, UniProt P52270); set-up: made in house; host or cells: Escherichia coli; settings: cited from earlier work; for Percentage of Inhibition TcTIM: at 100 µM; for IC50: read-out: IC50 ± SD TcTIM
[9] = system: T. cruzi epimastigotes, Tulahuen 2 strain (genotype TcVI); test: In vitro anti-T. cruzi activity, growth inhibition of epimastigotes; type: cell-based, Trypanosoma cruzi; settings: ratio IC50 mammalian cell / IC50 parasite (epimastigotes)
Experimental: For the in vitro anti-T. cruzi activity, we used epimastigotes of the Tulahuen 2 strain (genotype TcVI) grown in an axenic milieu (BHI-Tryptose). Cells from a 5–7-day-old culture were inoculated in fresh culture milieu to give an initial concentration of 1.00 × 10^6 cells/mL. The absorbance at 600 nm of the cells in culture was measured every day. At Day 5, the milieu was inoculated with different quantities of the compounds from a stock solution in DMSO (DMSO concentration in the culture milieu never exceeded 0.4%). The control was made in the presence of 0.4% DMSO and in the absence of compounds. Each concentration of compound was evaluated in duplicate. At Day 5, the absorbance of the culture was measured and related to the control. […] Each antiproliferative experiment was done in duplicate, and each concentration was tested in triplicate.

[10] = biological target: T2, cruzipain; test: Inhibition of T. cruzi cruzipain; type: biochemical
Experimental: Cruzipain was purified to homogeneity from epimastigotes of the Tulahuen 2 strain by ConA–Sepharose affinity chromatography, as previously described. Cruzipain (2.5 μM ε = 58,285 M^−1cm^−1) was incubated in 50 mM acetate buffer pH 5.5 with 5 mM DTT, and 100 μM inhibitor were added, shaking the solution for 15 min at 27 °C. The derivatives were added as solutions in DMSO, and the controls contained the same solvent concentration. The concentration of DMSO never exceeded 1% in the reaction medium. L-leucylam-ido(4-guanidino)butane (E-64) was used as a positive control of inhibition. Then, the fluorogenic substrate Z-Phe-Arg 7-amido-4-methylcoumarin hydrochloride (Z-Phe-Arg-AMC) at 10 μM was added, and the fluorescence was measured during 10 min at intervals of 3 s (excitation at 380 nm and emission at 460 nm) using a Varioskan Flash Spectrophotometer. From the slope of the negative control, we calculated the total (100%) enzyme activity, while the slopes obtained in the presence of the compounds yielded the percentage of remaining enzyme activity. The percentage of enzyme inhibition was determined as […]. The experiments were done in duplicate.

[11] = system: zebrafish embryos; test: Zebrafish embryo toxicity test (LD50)
Experimental: […] Only embryos that were clearly undamaged after 60 min of observation were kept and subsequently used. Dechorionated embryos were further manipulated using flame-rounded tip glass Pasteur pipettes. […] In all cases, the embryos were incubated in system water with 1% DMSO (negative control) and the compound at different doses between 8 and 96 hpf. The treatment solution was changed daily. […] At selected time points, namely 24, 48, 72 and 96 hpf, embryotoxicity (= mortality) and morphological characteristics of the embryos were evaluated using a Nikon SMZ800 stereomicroscope. The embryos were evaluated for the presence and morphological development (as appropriate) of somites, tail detachment, eyes, heart beat and blood circulation. All individuals were evaluated at all time points.

[12] = system: T. cruzi amastigotes; set-up: method as in PMID 26492824, PMID 24749923, doi:10.1039/C6RA27851E; settings: 5 µM, 72 h; cited from earlier work
[13] = system: T. cruzi; settings: 100 mg/kg body weight in mice, acute model; cited from earlier work
[14] = biological target: T3, triosephosphate isomerase from T. cruzi (TcTIM); test: Inhibition of triosephosphate isomerase; settings: read-out: Percentage of Inhibition TcTIM
Experimental: Expression and purification of proteins: TcTIM, LmTIM and HsTIM were expressed in Escherichia coli and purified as described in the literature [39]. […] Before use, extensive dialysis against 100 mM triethanolamine/10 mM EDTA (pH 7.4) was performed.
Enzymatic activity assays: Enzymatic activity was determined following the conversion of glyceraldehyde 3-phosphate into dihydroxyacetone phosphate. […] The reaction mixture (1 mL, pH 7.4) contained 100 mM triethanolamine, 10 mM EDTA, 0.2 mM NADH, 1 mM glyceraldehyde 3-phosphate and 0.9 units of α-glycerol phosphate dehydrogenase. The reaction was initiated by the addition of 5 ng/mL of the TcTIM.
The mixture also contained the compounds at the indicated concentrations. Compounds were dissolved in DMSO. After 2 h, 10 µL was withdrawn and added to a final volume of 100 µL of the reaction mixture for the activity assay. The inhibition assay was performed in a 96-well microplate Varioskan spectrophotometer. […] The experiments were performed in triplicate.

[15] = system: L. braziliensis promastigotes; set-up: method as in PMID 24749923; settings: footnote c; read-out: IC50 ± SD Promastigotes L. braziliensis; cited from earlier work
[16] = system: L. infantum promastigotes; set-up: method as in PMID 11913540; settings: superscript b printed; previously reported compound; read-out: IC50 ± SD Promastigotes L. infantum; cited from earlier work

T3 sequence (P52270 whole entry): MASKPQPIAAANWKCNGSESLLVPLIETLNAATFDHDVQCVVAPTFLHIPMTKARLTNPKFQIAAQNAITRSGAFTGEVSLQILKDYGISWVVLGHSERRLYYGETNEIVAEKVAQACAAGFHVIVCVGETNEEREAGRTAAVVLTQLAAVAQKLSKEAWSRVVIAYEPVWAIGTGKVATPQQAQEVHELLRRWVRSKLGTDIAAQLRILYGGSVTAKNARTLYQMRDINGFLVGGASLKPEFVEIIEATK
T2 sequence (P25779 123-467): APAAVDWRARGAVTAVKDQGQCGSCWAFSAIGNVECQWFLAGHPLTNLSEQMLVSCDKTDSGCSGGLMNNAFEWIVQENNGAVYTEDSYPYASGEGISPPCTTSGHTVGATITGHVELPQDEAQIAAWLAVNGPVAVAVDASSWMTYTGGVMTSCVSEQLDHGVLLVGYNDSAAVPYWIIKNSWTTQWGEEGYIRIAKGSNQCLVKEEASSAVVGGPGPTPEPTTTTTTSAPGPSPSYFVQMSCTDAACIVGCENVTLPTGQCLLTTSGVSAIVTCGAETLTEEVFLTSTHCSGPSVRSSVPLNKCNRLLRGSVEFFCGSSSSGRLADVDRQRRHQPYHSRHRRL
T1 sequence (P48499 whole entry): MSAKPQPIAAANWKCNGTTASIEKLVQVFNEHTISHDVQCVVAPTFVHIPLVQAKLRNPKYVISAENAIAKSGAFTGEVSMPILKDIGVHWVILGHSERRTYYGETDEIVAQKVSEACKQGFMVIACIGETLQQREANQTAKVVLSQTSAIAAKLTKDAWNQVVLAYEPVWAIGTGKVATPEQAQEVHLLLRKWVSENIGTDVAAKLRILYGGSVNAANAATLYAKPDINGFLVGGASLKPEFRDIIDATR

Row | SMILES | IC50 [1] | SI NCTC/ L. braziliensis [1] | IC50 [2] | SI NCTC/ L. infantum [2] | IC50 [3] | IC50 [4] | inhibition at 100 µM [4] | SI J774.1/ T. cruzi [5] | IC50 [5] | IC50 ([6]; J774.1) | Percentage of Inhibition Cruzipain [7] | Percentage of Inhibition TcTIM [8] | SI J774.1/ T. cruzi [9] | also measured
1 | CC(/C=C/C(=O)/C=C/C(C)=C/c1ccco1)=C\c1ccco1 [EA155] | 16 ± 2 µM | 34 | 6 ± 1 µM | 91 | 543 ± 15 µM | < 25 µM | 100% | 4 ^c | 8.2 ± 2 µM | 33 ± 8 µM | 0/- ^d | 100 | – | IC50 [8]: 3300 nM
2 | C=CCn1c(C(=O)N2CCN(C/C=C/c3ccccc3)CC2)cs\c1=N/N=C/C=C/c1ccco1 [HIT1] | 12 ± 5 µM | 29 | 4 ± 1 µM | 87 | 346 ± 9 µM | – | 0% | – | 3.1 ± 0.2 µM | 30 ± 5 µM | – | – | 10 | inhibition at 100 µM ([10]; at 100 µM, read-out: Percentage of Inhibition Cruzipain): 100%; IC50 ([10]; pool of cruzipain isoforms obtained from T. cruzi, read-out: IC50 ± SD Cruzipain): 4.3 µM; LD50 without chorion ([11]; dechorionated zebrafish embryos, 72 h incubation): 61 ± 2 µM; LD50 with chorion ([11]; zebrafish embryos with chorion): > 100 µM; Amastigotes in infected Vero cell culture after treatment [12]: cytosol without amastigotes; Reduction of the parasitemia [13]: 70%; inhibition at 100 µM [14]: 0%
3 | O=C(/C=C/c1cccs1)/C=C/c1cccs1 [EA138] | 8 ± 2 µM | 20 | 4 ± 0.5 µM | 40 | 158 ± 5 µM | < 25 µM | 100% | 8 ^c | 5 ± 0.8 µM | 38 ± 7 µM | 50/- ^d | 0/- ^d | – | –
4 | O=C1/C(=C/c2cccc3cnccc23)CC/C1=C\c1cccc2cnccc12 [Comp13, reference compound] | – | 23 | – | – | – | – | – | – | 31 ± 2 µM | – | – | – | 1 | IC50 [15]: 900 ± 200 nM; IC50 [6]: 21 ± 5 µM
5 | O=C(/C=C/C=C/c1ccco1)/C=C/C=C/c1ccco1 [EA128] | 36 ± 9 µM | 14 | 31 ± 9 µM | 16 | 494 ± 25 µM | – | 0% | 12 ^c | 5 ± 0.7 µM | 60 ± 3 µM | 48/- ^d | 100 | – | –
6 | COc1cc(/C=C/C(=O)CC(=O)/C=C/c2ccc(O)c(OC)c2)ccc1O [Curcumin, reference compound] | – | 2 | – | – | – | – | – | – | 5.6 ± 1 µM | – | – | – | 2 | IC50 [16]: 5.9 ± 0.3 µM; IC50 [6]: 10 ± 2 µM
7 | O=C1/C(=C/C=C/c2ccco2)CCC/C1=C\C=C\c1ccco1 [HIT2] | 7 ± 1 µM | 23 | 13 ± 7 µM | 12 | 160 ± 9 µM | < 25 µM | 100% | 17 ^c | 0.6 ± 0.2 µM | 10 ± 2 µM | 80 | 100 | – | IC50 [8]: 86 nM
